One data set deals with TLR2/6 (Homo sapiens, UniProt O60603). Description: P2C-induced IL-8 mRNA (qRT-PCR) in HEK-TLR2 stable transfectants. In kind it is cell-based. On the set-up: expressed in transfected cells. The note with it: 100 μM compound, 1 hr pretreatment, P2C 5 ng/mL 1 hr, HEK-TLR2 cells; read-out: decrease of P2C-induced IL-8 mRNA.
For the next data set, the target named is TLR2/1 (Mus musculus, UniProt Q9QUN7). The data set can be described thus: Cytokine mRNA/protein in murine peritoneal macrophages stimulated with TLR2/1 agonists (P3C, LTA SA). The format is cell-based. The note with it: murine macrophages, 25 μM or 50 μM, P3C 50 ng/mL 1 hr.
Sequence of TLR2/1 (Q9QUN7 25-784): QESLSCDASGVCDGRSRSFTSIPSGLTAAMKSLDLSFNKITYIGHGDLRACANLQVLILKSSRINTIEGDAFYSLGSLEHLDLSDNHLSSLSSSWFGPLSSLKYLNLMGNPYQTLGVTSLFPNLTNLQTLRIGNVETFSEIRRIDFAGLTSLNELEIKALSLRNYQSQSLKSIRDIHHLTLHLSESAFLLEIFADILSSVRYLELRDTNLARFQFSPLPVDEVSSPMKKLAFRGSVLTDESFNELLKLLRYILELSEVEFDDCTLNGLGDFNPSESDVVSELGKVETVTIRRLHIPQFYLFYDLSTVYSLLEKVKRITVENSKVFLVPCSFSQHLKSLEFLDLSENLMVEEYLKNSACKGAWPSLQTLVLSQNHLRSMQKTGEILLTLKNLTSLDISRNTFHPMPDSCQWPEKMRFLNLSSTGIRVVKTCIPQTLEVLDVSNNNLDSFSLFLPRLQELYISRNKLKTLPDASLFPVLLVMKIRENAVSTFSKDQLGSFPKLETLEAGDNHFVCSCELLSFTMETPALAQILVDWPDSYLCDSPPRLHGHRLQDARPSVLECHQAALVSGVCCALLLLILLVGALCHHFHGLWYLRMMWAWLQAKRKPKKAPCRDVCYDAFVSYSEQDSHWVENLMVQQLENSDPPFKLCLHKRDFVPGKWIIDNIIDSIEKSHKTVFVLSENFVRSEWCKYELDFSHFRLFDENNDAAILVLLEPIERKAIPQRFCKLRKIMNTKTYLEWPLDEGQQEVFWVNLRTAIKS
The conditions of data set [1]: in vivo; stated for o-vanillin, reported previously for its isomer vanillin (Beaudry 2010); cited from earlier work.

Some results are limits rather than exact numbers.

Sequence of TLR2/6 (O60603 21-784): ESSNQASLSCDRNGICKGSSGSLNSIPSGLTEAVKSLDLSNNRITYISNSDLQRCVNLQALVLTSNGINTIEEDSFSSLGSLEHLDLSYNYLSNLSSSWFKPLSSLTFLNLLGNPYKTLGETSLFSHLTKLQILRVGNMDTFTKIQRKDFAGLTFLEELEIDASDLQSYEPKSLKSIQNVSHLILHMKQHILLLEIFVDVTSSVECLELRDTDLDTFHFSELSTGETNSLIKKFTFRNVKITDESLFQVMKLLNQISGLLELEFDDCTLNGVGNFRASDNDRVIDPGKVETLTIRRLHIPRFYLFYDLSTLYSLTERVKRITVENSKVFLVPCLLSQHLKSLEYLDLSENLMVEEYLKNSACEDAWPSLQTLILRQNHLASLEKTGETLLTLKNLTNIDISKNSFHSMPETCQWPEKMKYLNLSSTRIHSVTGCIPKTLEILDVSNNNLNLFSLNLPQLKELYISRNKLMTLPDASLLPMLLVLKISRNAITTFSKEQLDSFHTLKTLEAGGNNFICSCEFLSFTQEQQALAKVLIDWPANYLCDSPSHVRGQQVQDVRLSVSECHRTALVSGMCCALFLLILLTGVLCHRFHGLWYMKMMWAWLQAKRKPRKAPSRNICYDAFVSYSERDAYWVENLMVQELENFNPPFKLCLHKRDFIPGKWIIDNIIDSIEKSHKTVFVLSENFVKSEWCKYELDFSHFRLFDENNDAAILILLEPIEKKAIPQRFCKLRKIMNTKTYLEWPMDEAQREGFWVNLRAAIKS

Turning to `CN(CC(=O)Nc1ccc2c(c1)OCO2)S(=O)(=O)c1cccs1` [Compound C24], at TLR2/6, the inhibition at 100 µM is at least 50%.
The same measure, in the same setting: under `Cc1ccc(S(=O)(=O)NCCC(=O)NCCc2ccccc2)cc1` [Compound C33] stands at least 50%.
On to `Cc1c(N)cccc1C(=O)O` [Compound C29R, 3-amino-2-methylbenzoic acid, reference compound], for which the “TLR2/1-induced TNF-α gene expression” value at TLR2/1 is “but not C29R, dose-dependently inhibited”.
As to `CCN(CCCNc1nc(=S)[nH]c2ccccc12)c1ccccc1` [Compound C32], the inhibition at 100 µM at TLR2/6 was at least 50%.
Turning to `COc1cccc(-c2nc(CSCC(=O)NCCN3CCOCC3)c(C)o2)c1` [Compound C25], the inhibition at 100 µM at TLR2/6 is at least 50%.
As for `COc1cc(C=O)ccc1O` [vanillin, reference compound], the bioavailability entry in data set [1] is on record as “poor bioavailability”.
For the compound `COc1ccc(-c2nc(CSCC(=O)NCc3cccnc3)c(C)o2)cc1OC` [Compound C26], at TLR2/6, the inhibition at 100 µM was at least 50%.
Same read-out and setting: to `O=C(CCC1N=C2c3ccccc3NC(=S)N2C1=O)NCc1ccco1` (centres unmarked) [Compound C30] belongs at least 50%.

The values above are taken from patent US12653800B2, “Small molecule inhibitors of TLR2 signaling” (University of Maryland, Baltimore, priority 2015, dated 2026).
